Reference: patent US12516046B2, “2-oxo-oxazolidine-5-carboxamides as NAV1.8 inhibitors” (Merck Sharp & Dohme LLC, priority 2020, dated 2026)

target: human Nav1.8 (Homo sapiens (Human), UniProt Q9Y5Y9); assay: Nav1.8 Qube® Assay (automated 384-well patch-clamp); format: cell-based; conditions: human Nav1.8 channels stably expressed in HEK 293 cells
Source text: Qube® Assay Experimental Procedure

human Nav1.8, sequence (Q9Y5Y9 whole entry): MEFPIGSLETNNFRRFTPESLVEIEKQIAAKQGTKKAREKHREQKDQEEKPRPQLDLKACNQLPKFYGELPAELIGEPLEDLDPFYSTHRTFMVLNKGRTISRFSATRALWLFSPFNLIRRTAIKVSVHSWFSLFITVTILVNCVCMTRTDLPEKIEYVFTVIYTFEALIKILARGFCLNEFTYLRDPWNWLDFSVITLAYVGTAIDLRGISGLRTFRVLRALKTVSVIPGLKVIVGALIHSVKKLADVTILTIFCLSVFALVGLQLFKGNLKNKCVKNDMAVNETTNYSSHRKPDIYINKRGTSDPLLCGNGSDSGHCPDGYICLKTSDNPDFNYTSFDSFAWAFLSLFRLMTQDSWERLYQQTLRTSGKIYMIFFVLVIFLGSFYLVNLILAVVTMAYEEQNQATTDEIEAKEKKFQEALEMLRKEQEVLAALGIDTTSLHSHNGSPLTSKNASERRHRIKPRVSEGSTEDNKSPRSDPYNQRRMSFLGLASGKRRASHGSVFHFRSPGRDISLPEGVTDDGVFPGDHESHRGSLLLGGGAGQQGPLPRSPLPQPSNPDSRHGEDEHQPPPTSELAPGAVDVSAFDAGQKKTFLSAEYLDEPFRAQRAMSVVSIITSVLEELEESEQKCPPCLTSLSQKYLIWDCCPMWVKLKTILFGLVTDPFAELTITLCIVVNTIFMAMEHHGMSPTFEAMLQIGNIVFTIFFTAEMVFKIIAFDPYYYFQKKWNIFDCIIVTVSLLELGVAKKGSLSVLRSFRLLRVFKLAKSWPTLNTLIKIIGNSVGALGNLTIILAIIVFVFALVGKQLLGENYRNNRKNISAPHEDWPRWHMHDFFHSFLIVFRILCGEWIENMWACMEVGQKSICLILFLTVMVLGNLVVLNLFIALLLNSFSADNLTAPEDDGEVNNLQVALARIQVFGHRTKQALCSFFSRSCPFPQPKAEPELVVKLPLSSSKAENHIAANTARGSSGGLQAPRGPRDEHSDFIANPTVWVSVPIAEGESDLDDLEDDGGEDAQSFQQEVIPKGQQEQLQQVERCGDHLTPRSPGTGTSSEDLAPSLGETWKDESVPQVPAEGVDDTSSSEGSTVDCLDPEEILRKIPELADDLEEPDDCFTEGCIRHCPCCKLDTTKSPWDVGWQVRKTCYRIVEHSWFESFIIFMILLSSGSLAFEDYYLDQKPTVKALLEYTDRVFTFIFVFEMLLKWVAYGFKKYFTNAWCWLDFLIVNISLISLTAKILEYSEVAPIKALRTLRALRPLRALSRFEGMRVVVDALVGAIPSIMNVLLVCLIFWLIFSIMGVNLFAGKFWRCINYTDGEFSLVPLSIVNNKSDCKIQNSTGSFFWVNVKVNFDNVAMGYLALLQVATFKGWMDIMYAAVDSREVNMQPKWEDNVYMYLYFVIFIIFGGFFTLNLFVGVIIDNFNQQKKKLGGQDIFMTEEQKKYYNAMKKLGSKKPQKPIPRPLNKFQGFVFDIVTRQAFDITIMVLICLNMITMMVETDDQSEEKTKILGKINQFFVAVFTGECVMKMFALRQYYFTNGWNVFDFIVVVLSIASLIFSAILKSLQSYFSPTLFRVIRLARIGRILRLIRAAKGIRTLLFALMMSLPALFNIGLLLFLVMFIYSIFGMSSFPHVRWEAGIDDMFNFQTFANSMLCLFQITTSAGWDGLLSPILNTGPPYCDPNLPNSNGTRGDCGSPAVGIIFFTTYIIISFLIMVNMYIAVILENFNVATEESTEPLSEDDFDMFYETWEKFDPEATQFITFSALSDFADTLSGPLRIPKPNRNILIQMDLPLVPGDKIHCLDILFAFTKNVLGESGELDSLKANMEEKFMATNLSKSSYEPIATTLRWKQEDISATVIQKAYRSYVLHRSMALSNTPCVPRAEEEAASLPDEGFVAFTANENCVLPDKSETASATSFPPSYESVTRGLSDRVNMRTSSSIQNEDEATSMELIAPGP

IC50 [nM] | Compound
16 | N#Cc1cc(C(NC(=O)[C@@H]2CNC(=O)O2)c2ccc(F)c(Cl)c2)ccc1F (single isomer, unassigned) [Example 69, (S)-N-((R or S)-(3-chloro-4-fluorophenyl)(3-cyano-4-fluorophenyl)methyl)-2-oxooxazolidine-5-carboxamide]
8.8 | O=C1NC[C@@H](C(=O)NC(c2ccc(F)c(Cl)c2)c2cccc(C(F)(F)F)n2)O1 (single isomer, unassigned) [Example 49A, (S)-N-((R or S)-(3-chloro-4-fluorophenyl)(6-(trifluoromethyl)pyridin-2-yl)methyl)-2-oxooxazolidine-5-carboxamide]
80 | O=C1NC[C@@H](C(=O)NC(c2ccc(Cl)cc2)c2ccc(OCC(F)(F)F)nn2)O1 (single isomer, unassigned) [Example 73B, (S)-N-((R or S)-(4-chlorophenyl)(6-(2,2,2-trifluoroethoxy)pyridazin-3-yl)methyl)-2-oxooxazolidine-5-carboxamide]
11 | Cn1nc(C(NC(=O)[C@@H]2CNC(=O)O2)c2ccc(F)c(Cl)c2)cc1C(F)(F)F (single isomer, unassigned) [Example 62B, (S)-N-((R or S)-(3-chloro-4-fluorophenyl)(1-methyl-5-(trifluoromethyl)-1H-pyrazol-3-yl)methyl)-2-oxooxazolidine-5-carboxamide]
265 | O=C1NC[C@@H](C(=O)NC(c2ccc(F)c(Cl)c2)c2cc(C(F)(F)F)[nH]n2)O1 (single isomer, unassigned) [Example 5B, (S)—N—((R or S)-(3-chloro-4-fluorophenyl)(5-(trifluoromethyl)-1H-pyrazol-3-yl)methyl)-2-oxooxazolidine-5-carboxamide]
268 | O=C1NC[C@@H](C(=O)NC(COc2ccc(C(F)(F)F)nc2)c2ccc(F)c(Cl)c2)O1 (stereo partly drawn) [Example 66, (5S)-N-(1-(3-chloro-4-fluorophenyl)-2-((6-(trifluoro-methyl)pyridin-3-yl)oxy)ethyl)-2-oxooxazolidine-5-carboxamide]
130 | COc1ccc(C(NC(=O)[C@@H]2CNC(=O)O2)c2ccc(Cl)cc2)cn1 (single isomer, unassigned) [Example 22A, (S)-N-((R or S)-(4-chlorophenyl)(6-methoxypyridin-3-yl)methyl)-2-oxooxazolidine-5-carboxamide]
69 | O=C1NC[C@@H](C(=O)NC(c2ccc(Cl)cc2)c2ccc(OC(F)F)nc2)O1 (stereo partly drawn) [Example 36, (5S)-N-((4-chlorophenyl)(6-(difluoromethoxy)pyridin-3-yl)methyl)-2-oxooxazolidine-5-carboxamide]
4.6 | O=C1NC[C@@H](C(=O)NC(COc2ccc(F)c(Cl)c2)c2ccc(F)c(Cl)c2)O1 (single isomer, unassigned) [Example 8B, (S)—N—((R or S)-2-(3-chloro-4-fluorophenoxy)-1-(3-chloro-4-fluorophenyl)ethyl)-2-oxooxazolidine-5-carboxamide]
24 | COc1ncccc1C(NC(=O)[C@@H]1CNC(=O)O1)c1ccc(F)c(Cl)c1 (single isomer, unassigned) [Example 58B, (S)-N-((R or S)-(3-chloro-4-fluorophenyl)(2-methoxypyridin-3-yl)methyl)-2-oxooxazolidine-5-carboxamide]
399 | O=C1NC[C@@H](C(=O)NC(c2ccc(Cl)cc2)c2ccnc(C(F)(F)F)n2)O1 (single isomer, unassigned) [Example 11B, (S)-N-((R or S)-(4-chlorophenyl)(2-(trifluoromethyl)pyrimidin-4-yl)methyl)-2-oxooxazolidine-5-carboxamide]
14900 | CC1(C(=O)NC(c2ccc(Cl)cc2)c2ccc(Cl)cc2)CNC(=O)O1 (single isomer, unassigned) [Example 7A, (R or S)—N-(bis(4-chlorophenyl)methyl)-5-methyl-2-oxooxazolidine-5-carboxamide]
17 | O=C1NC[C@@H](C(=O)NC(c2ccc(F)c(Cl)c2)c2csc(C(F)(F)F)n2)O1 (single isomer, unassigned) [Example 44B, (S)—N—((R or S)-(3-chloro-4-fluorophenyl)(2-(trifluoro-methyl)thiazol-4-yl)methyl)-2-oxooxazolidine-5-carboxamide]
14 | O=C1NC[C@@H](C(=O)NC(c2ccccc2)c2ccc(Cl)c(Cl)c2)O1 (single isomer, unassigned) [Example 25B, (S)-N-((R or S)-(3,4-dichlorophenyl) (phenyl)methyl)-2-oxooxazolidine-5-carboxamide]
113 | O=C1NC[C@@H](C(=O)NC(c2ccc(Cl)cc2)c2ccc(C(F)(F)F)cn2)O1 (single isomer, unassigned) [Example 37A, (S)-N-((R or S)-(4-chlorophenyl)(5-(trifluoromethyl)pyridin-2-yl)methyl)-2-oxooxazolidine-5-carboxamide]
12 | CC(C)c1cccc(C(NC(=O)[C@@H]2CNC(=O)O2)c2ccc(Cl)cc2)c1 (single isomer, unassigned) [Example 32B, (S)-N-((R or S)-(4-chlorophenyl)(3-isopropylphenyl)methyl)-2-oxooxazolidine-5-carboxamide]
5.4 | O=C1NC[C@@H](C(=O)NC(c2ccc(F)c(Cl)c2F)[C@H]2C[C@H](C(F)(F)F)C2)O1 (single isomer, unassigned) [Example 70, (S)—N—((R or S)-(3-chloro-2,4-difluorophenyl)((trans)-3-(trifluoromethyl)cyclobutyl)methyl)-2-oxooxazolidine-5-carboxamide]
0.4 | O=C1NC[C@@H](C(=O)NC(c2ccc(Cl)cc2)c2ccc(Cl)c(C(F)(F)F)c2)O1 (single isomer, unassigned) [Example 35A, (S)-N-((R or S)-(4-chloro-3-(trifluoromethyl)phenyl)(4-chlorophenyl)methyl)-2-oxooxazolidine-5-carboxamide]
12 | COc1ncccc1C(NC(=O)[C@@H]1CNC(=O)O1)c1ccc(F)c(Cl)c1 (single isomer, unassigned) [Example 58A, (S)-N-((R or S)-(3-chloro-4-fluorophenyl)(2-methoxypyridin-3-yl)methyl)-2-oxooxazolidine-5-carboxamide]
74 | O=C1NC[C@@H](C(=O)NC(c2ccc(Cl)cc2)c2cccc(F)c2F)O1 (single isomer, unassigned) [Example 29B, (S)-N-((R or S)-(4-chlorophenyl)(2,3-difluorophenyl)methyl)-2-oxooxazolidine-5-carboxamide]
573 | O=C1NC[C@@H](C(=O)NC(c2cncc(Cl)c2)c2ccc(F)c(Cl)c2)O1 (single isomer, unassigned) [Example 13A, (S)-N-((R or S)-(3-chloro-4-fluorophenyl)(5-chloropyridin-3-yl)methyl)-2-oxooxazolidine-5-carboxamide]
326 | O=C1NC[C@@H](C(=O)NC(c2cccc(Cl)c2)C2CC2c2ccccc2)O1 (single isomer, unassigned) [Example 26A, (5S)-N-((R or S)-(3-chlorophenyl) ((cis or trans)-2-phenylcyclopropyl)methyl)-2-oxooxazolidine-5-carboxamide]
6.8 | O=C1NC[C@@H](C(=O)NC(c2ccc(OC(F)F)cc2)c2ccc(F)c(Cl)c2)O1 (single isomer, unassigned) [Example 48B, (S)-N-((R or S)-(3-chloro-4-fluorophenyl)(4-(difluoromethoxy)phenyl)methyl)-2-oxooxazolidine-5-carboxamide]
1160 | O=C1NC[C@@H](C(=O)NC(c2ccc(Cl)cc2)C2CCC(F)(F)C2)O1 (single isomer, unassigned) [Example 57D, (S)-N-((R or S)-(4-chlorophenyl)((R or S)-3,3-difluorocyclopentyl)methyl)-2-oxooxazolidine-5-carboxamide]
57 | O=C1NC[C@@H](C(=O)NC(c2ccc(Cl)cc2)c2n[nH]c3ccccc23)O1 (single isomer, unassigned) [Example 15A, (S)-N-((R or S)-(4-chlorophenyl)(1H-indazol-3-yl)methyl)-2-oxooxazolidine-5-carboxamide]
4.8 | O=C1NC[C@@H](C(=O)NC(c2ccc(Cl)cc2)c2cccc(C3CC3)c2)O1 (single isomer, unassigned) [Example 33A, (S)-N-((R or S)-(4-chlorophenyl)(3-cyclopropylphenyl)methyl)-2-oxooxazolidine-5-carboxamide]
21 | O=C1NC[C@@H](C(=O)NC(CC2CCCCC2)c2ccc(F)c(Cl)c2F)O1 (stereo partly drawn) [Example 67, (S)-N-(1-(3-chloro-2,4-difluorophenyl)-2-cyclohexylethyl)-2-oxooxazolidine-5-carboxamide]
231 | Cn1nc(C(F)(F)F)cc1C(NC(=O)[C@@H]1CNC(=O)O1)c1ccc(F)c(Cl)c1 (single isomer, unassigned) [Example 61B, (S)-N-((R or S)-(3-chloro-4-fluorophenyl)(1-methyl-3-(trifluoromethyl)-1H-pyrazol-5-yl)methyl)-2-oxooxazolidine-5-carboxamide]
10600 | O=C1NC[C@@H](C(=O)NC(c2ccc(Cl)cc2)c2c[nH]c(C(F)(F)F)n2)O1 (single isomer, unassigned) [Example 17B, (S)-N-((R or S)-(4-chlorophenyl)(2-(trifluoromethyl)-1H-imidazol-4-yl)methyl)-2-oxooxazolidine-5-carboxamide]
7.2 | N#Cc1ccc(C(NC(=O)[C@@H]2CNC(=O)O2)c2cnc(C(F)(F)F)c(Cl)c2)cc1Cl (single isomer, unassigned) [Example 54B, (S)-N-((R or S)-(3-chloro-4-cyano-phenyl)(5-chloro-6-(trifluoromethyl)pyridin-3-yl)methyl)-2-oxooxazolidine-5-carboxamide]

Compound | IC50 [nM]
CC1NC(=O)OC1C(=O)NC(c1ccc(Cl)cc1)c1ccc(Cl)cc1 (single isomer, unassigned) [Example 6B, (cis or trans)-N-(bis(4-chlorophenyl)methyl)-4-methyl-2-oxooxazolidine-5-carboxamide] | 1520
